{"source": "patent US10538487B2", "about": "“Sulfonylureas and related compounds and use of same” (priority 2015, dated 2020)", "assay": "Single dose pharmacokinetic study in mice (iv 4 mg/Kg, po 20 mg/Kg), plasma concentration post-dosing", "format": "in vivo, mouse", "conditions": "male, C57BL/6, mouse, plasma, mouse; for concentration at 5 min: 5 min post dosing; for concentration at 0.25 h: 0.250 h post dosing; for concentration at 0.5 h: 0.500 h post dosing; for concentration at 1 h: 1.00 h post dosing; for concentration at 2 h: 2.00 h post dosing; for concentration at 4 h: 4.00 h post dosing; for concentration at 8 h: 8.00 h post dosing; for concentration at 24 h: 24.0 h post dosing", "method": "This is advantageous leading to comparatively lower doses or less frequent administration. The procedure followed was: Male C57BL/6 mice were used at 7-9 weeks age with 3 animals per group. Mice were dosed with test compound using single intravenous bolus or oral gavage. Blood samples were taken via submandibular or saphenous vein for analysis of plasma concentrations of compound by LC-MS/MS at the following timepoints: IV (3 mice): 0.083, 0.25, 0.5, 1, 2, 4, 8 and 24 hours post dosing, PO (3 mice): 0.25, 0.5, 1, 2, 4, 8 and 24 hours post dosing. LC-MS/MS method for the quantitative determination of test compound in corresponding biological matrix was developed. […] The results are shown graphically in FIGS. 1A to 1C (MCC950) and FIGS. 2A to 2C (MCC7840).", "note": "Where two headings read alike, the source gives them in different places."}
{"molecule": "CC(C)(O)c1coc(S(=O)(=O)NC(=O)Nc2c3c(cc4c2CCC4)CCC3)c1", "note": "[MCC_000950_016, N-((1,2,3,5,6,7-hexahydro-s-indacen-4-yl)carbamoyl)-4-(2-hydroxypropan-2-yl)furan-2-sulfonamide, reference compound]", "values": [{"measurement": "concentration at 5 min", "setting": "iv, 4 mg/kg, IV 4 mg/Kg, individual mice M1-M3, read-out: Plasma concentration, IV Time 0.0833 h", "value": 20200, "unit": "ng/mL"}, {"measurement": "concentration at 5 min", "setting": "iv, 4 mg/kg, IV 4 mg/Kg, mean of 3 mice, read-out: Plasma concentration, IV Time 0.0833 h, Mean IV", "value": 18400, "unit": "ng/mL"}, {"measurement": "concentration at 0.25 h", "setting": "iv, 4 mg/kg, IV 4 mg/Kg, individual mice M1-M3, read-out: Plasma concentration, IV Time 0.250 h", "value": 16000, "unit": "ng/mL"}, {"measurement": "concentration at 0.25 h", "setting": "iv, 4 mg/kg, IV 4 mg/Kg, mean of 3 mice, read-out: Plasma concentration, IV Time 0.250 h, Mean IV", "value": 13000, "unit": "ng/mL"}, {"measurement": "concentration at 0.5 h", "setting": "iv, 4 mg/kg, IV 4 mg/Kg, individual mice M1-M3, read-out: Plasma concentration, IV Time 0.500 h", "value": 11700, "unit": "ng/mL"}, {"measurement": "concentration at 0.5 h", "setting": "iv, 4 mg/kg, IV 4 mg/Kg, mean of 3 mice, read-out: Plasma concentration, IV Time 0.500 h, Mean IV", "value": 10500, "unit": "ng/mL"}, {"measurement": "concentration at 1 h", "setting": "iv, 4 mg/kg, IV 4 mg/Kg, individual mice M1-M3, read-out: Plasma concentration, IV Time 1.00 h", "value": 9340, "unit": "ng/mL"}, {"measurement": "concentration at 1 h", "setting": "iv, 4 mg/kg, IV 4 mg/Kg, mean of 3 mice, read-out: Plasma concentration, IV Time 1.00 h, Mean IV", "value": 8430, "unit": "ng/mL"}, {"measurement": "concentration at 2 h", "setting": "iv, 4 mg/kg, IV 4 mg/Kg, individual mice M1-M3, read-out: Plasma concentration, IV Time 2.00 h", "value": 7410, "unit": "ng/mL"}, {"measurement": "concentration at 2 h", "setting": "iv, 4 mg/kg, IV 4 mg/Kg, mean of 3 mice, read-out: Plasma concentration, IV Time 2.00 h, Mean IV", "value": 6140, "unit": "ng/mL"}, {"measurement": "concentration at 4 h", "setting": "iv, 4 mg/kg, IV 4 mg/Kg, individual mice M1-M3, read-out: Plasma concentration, IV Time 4.00 h", "value": 3280, "unit": "ng/mL"}, {"measurement": "concentration at 4 h", "setting": "iv, 4 mg/kg, IV 4 mg/Kg, mean of 3 mice, read-out: Plasma concentration, IV Time 4.00 h, Mean IV", "value": 2600, "unit": "ng/mL"}, {"measurement": "concentration at 8 h", "setting": "iv, 4 mg/kg, IV 4 mg/Kg, individual mice M1-M3, read-out: Plasma concentration, IV Time 8.00 h", "value": 905, "unit": "ng/mL"}, {"measurement": "concentration at 8 h", "setting": "iv, 4 mg/kg, IV 4 mg/Kg, mean of 3 mice, read-out: Plasma concentration, IV Time 8.00 h, Mean IV", "value": 743, "unit": "ng/mL"}, {"measurement": "concentration at 24 h", "setting": "iv, 4 mg/kg, IV 4 mg/Kg, individual mice M1-M3, read-out: Plasma concentration, IV Time 24.0 h", "value": 3.29, "unit": "ng/mL"}, {"measurement": "concentration at 24 h", "setting": "iv, 4 mg/kg, IV 4 mg/Kg, mean of 3 mice, read-out: Plasma concentration, IV Time 24.0 h, Mean IV", "value": 2.65, "unit": "ng/mL"}, {"measurement": "AUC0-inf", "setting": "iv, 4 mg/kg, IV 4 mg/Kg, individual mice M1-M3, read-out: AUC0-inf", "value": 41900, "unit": "ng·h/mL"}, {"measurement": "AUC(0-t)", "setting": "iv, 4 mg/kg, IV 4 mg/Kg, individual mice M1-M3, read-out: AUC0-last", "value": 41900, "unit": "ng·h/mL"}, {"measurement": "C0", "setting": "iv, 4 mg/kg, IV 4 mg/Kg, individual mice M1-M3, read-out: C0", "value": 22700, "unit": "ng/mL"}, {"measurement": "clearance", "setting": "iv, 4 mg/kg, IV 4 mg/Kg, individual mice M1-M3, read-out: Cl", "value": 1.59, "unit": "mL/min/kg"}, {"measurement": "MRT inf", "setting": "iv, 4 mg/kg, IV 4 mg/Kg, individual mice M1-M3, read-out: MRT0-inf", "value": 2.78, "unit": "h"}, {"measurement": "MRT last", "setting": "iv, 4 mg/kg, IV 4 mg/Kg, individual mice M1-M3, read-out: MRT0-last", "value": 2.77, "unit": "h"}, {"measurement": "half-life", "setting": "iv, 4 mg/kg, IV 4 mg/Kg, individual mice M1-M3, read-out: T1/2 (converted)", "value": 2, "unit": "h"}, {"measurement": "Vd", "setting": "iv, 4 mg/kg, IV 4 mg/Kg, individual mice M1-M3, read-out: Vdss", "value": 0.265, "unit": "L/kg"}, {"measurement": "AUC0-inf", "setting": "iv, 4 mg/kg, IV 4 mg/Kg, mean of 3 mice, read-out: AUC0-inf, Mean IV", "value": 35400, "unit": "ng·h/mL"}, {"measurement": "AUC(0-t)", "setting": "iv, 4 mg/kg, IV 4 mg/Kg, mean of 3 mice, read-out: AUC0-last, Mean IV", "value": 35400, "unit": "ng·h/mL"}, {"measurement": "clearance", "setting": "iv, 4 mg/kg, IV 4 mg/Kg, mean of 3 mice, read-out: Cl, Mean IV", "value": 1.92, "unit": "mL/min/kg"}, {"measurement": "MRT inf", "setting": "iv, 4 mg/kg, IV 4 mg/Kg, mean of 3 mice, read-out: MRT0-inf, Mean IV", "value": 2.67, "unit": "h"}, {"measurement": "MRT last", "setting": "iv, 4 mg/kg, IV 4 mg/Kg, mean of 3 mice, read-out: MRT0-last, Mean IV", "value": 2.67, "unit": "h"}, {"measurement": "half-life", "setting": "iv, 4 mg/kg, IV 4 mg/Kg, mean of 3 mice, read-out: T1/2, Mean IV (converted)", "value": 2, "unit": "h"}, {"measurement": "Vd", "setting": "iv, 4 mg/kg, IV 4 mg/Kg, mean of 3 mice, read-out: Vdss, Mean IV", "value": 0.306, "unit": "L/kg"}, {"measurement": "concentration at 0.25 h", "setting": "po, 20 mg/kg, PO 20 mg/Kg, mean of 3 mice, read-out: Plasma concentration, PO Time 0.250 h, Mean PO", "value": 33300, "unit": "ng/mL"}, {"measurement": "concentration at 0.5 h", "setting": "po, 20 mg/kg, PO 20 mg/Kg, individual mice M4-M6, read-out: Plasma concentration, PO Time 0.500 h", "value": 20400, "unit": "ng/mL"}, {"measurement": "concentration at 0.5 h", "setting": "po, 20 mg/kg, PO 20 mg/Kg, mean of 3 mice, read-out: Plasma concentration, PO Time 0.500 h, Mean PO", "value": 30100, "unit": "ng/mL"}, {"measurement": "concentration at 1 h", "setting": "po, 20 mg/kg, PO 20 mg/Kg, individual mice M4-M6, read-out: Plasma concentration, PO Time 1.00 h", "value": 19300, "unit": "ng/mL"}, {"measurement": "concentration at 1 h", "setting": "po, 20 mg/kg, PO 20 mg/Kg, mean of 3 mice, read-out: Plasma concentration, PO Time 1.00 h, Mean PO", "value": 30000, "unit": "ng/mL"}, {"measurement": "concentration at 2 h", "setting": "po, 20 mg/kg, PO 20 mg/Kg, individual mice M4-M6, read-out: Plasma concentration, PO Time 2.00 h", "value": 18500, "unit": "ng/mL"}, {"measurement": "concentration at 2 h", "setting": "po, 20 mg/kg, PO 20 mg/Kg, mean of 3 mice, read-out: Plasma concentration, PO Time 2.00 h, Mean PO", "value": 22400, "unit": "ng/mL"}, {"measurement": "concentration at 4 h", "setting": "po, 20 mg/kg, PO 20 mg/Kg, individual mice M4-M6, read-out: Plasma concentration, PO Time 4.00 h", "value": 10200, "unit": "ng/mL"}, {"measurement": "concentration at 4 h", "setting": "po, 20 mg/kg, PO 20 mg/Kg, mean of 3 mice, read-out: Plasma concentration, PO Time 4.00 h, Mean PO", "value": 11200, "unit": "ng/mL"}, {"measurement": "concentration at 8 h", "setting": "po, 20 mg/kg, PO 20 mg/Kg, individual mice M4-M6, read-out: Plasma concentration, PO Time 8.00 h", "value": 4330, "unit": "ng/mL"}, {"measurement": "concentration at 8 h", "setting": "po, 20 mg/kg, PO 20 mg/Kg, mean of 3 mice, read-out: Plasma concentration, PO Time 8.00 h, Mean PO", "value": 3790, "unit": "ng/mL"}, {"measurement": "concentration at 24 h", "setting": "po, 20 mg/kg, PO 20 mg/Kg, mean of 3 mice, read-out: Plasma concentration, PO Time 24.0 h, Mean PO", "value": 39.1, "unit": "ng/mL"}, {"measurement": "AUC0-inf", "setting": "po, 20 mg/kg, PO 20 mg/Kg, individual mice M4-M6, read-out: AUC0-inf", "value": 108000, "unit": "ng·h/mL"}, {"measurement": "AUC(0-t)", "setting": "po, 20 mg/kg, PO 20 mg/Kg, individual mice M4-M6, read-out: AUC0-last", "value": 108000, "unit": "ng·h/mL"}, {"measurement": "MRT inf", "setting": "po, 20 mg/kg, PO 20 mg/Kg, individual mice M4-M6, read-out: MRT0-inf", "value": 4.31, "unit": "h"}, {"measurement": "MRT last", "setting": "po, 20 mg/kg, PO 20 mg/Kg, individual mice M4-M6, read-out: MRT0-last", "value": 4.26, "unit": "h"}, {"measurement": "half-life", "setting": "po, 20 mg/kg, PO 20 mg/Kg, individual mice M4-M6, read-out: T1/2 (converted)", "value": 2.67, "unit": "h"}, {"measurement": "Tmax", "setting": "po, 20 mg/kg, PO 20 mg/Kg, individual mice M4-M6, read-out: Tmax", "value": 0.25, "unit": "h"}]}
